Source: PMC10987496, “Activity-stability trade-off observed in variants at position 315 of the GH10 xylanase XynR” (Scientific Reports, 2024)

Target: T1, XynR (WT) (Halalkalibacterium halodurans, UniProt P07528)
T1 construct: gene xynA; pET-21b(+)-XynR expressed in E. coli BL21(DE3), purified on HisTrap (His-tagged); residues 2-359 modelled in 2 chains; catalytic E150/E256
Experiment: X-ray crystallography, […] A (co-crystallisation and soaking)
Assay type: binding
Settings: 0.35 M xylobiose, Tris-HCl pH 8.0 mixed with reservoir pH 4.6 (0.02 M CaCl2, acetate, MPD), 20 °C; active site, subsites +1 and +2

T1 sequence (P07528 46-396): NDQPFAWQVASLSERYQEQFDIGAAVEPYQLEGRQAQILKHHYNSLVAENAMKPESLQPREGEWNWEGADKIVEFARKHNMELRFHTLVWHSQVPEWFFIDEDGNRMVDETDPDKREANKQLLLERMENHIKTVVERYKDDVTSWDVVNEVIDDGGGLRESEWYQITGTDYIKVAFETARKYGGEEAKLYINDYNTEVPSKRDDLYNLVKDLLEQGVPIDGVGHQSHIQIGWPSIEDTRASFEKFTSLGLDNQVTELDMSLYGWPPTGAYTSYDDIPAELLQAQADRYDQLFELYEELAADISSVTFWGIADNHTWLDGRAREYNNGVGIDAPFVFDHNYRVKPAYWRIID

OC1OC[C@@H](O[C@@H]2OC[C@@H](O)[C@H](O)[C@H]2O)[C@H](O)[C@H]1O (stereo partly shown) [xylobiose]
X-ray crystallography, 1.80 A (co-crystallisation and soaking): we made crystallographic analysis of WT complexed with xylobiose
